Publication PMC4542541, “Flexibility and extracellular opening determine the interaction between ligands and insect sulfakinin receptors” (Scientific Reports, 2015)
“Also recorded” adds a separate entry of the source.

How the values were obtained:
[1] = tested on: TcSKR1; test: Receptor activation bioassay, CRE-luciferase reporter in Sf9-TcSKR1 cells; type: cell-based, Tribolium castaneum; set-up: key to peptide marked active on TcSKR1: *: A peptide is active on the sulfakinin receptor (SKR); settings: for peptide marked active on TcSKR1: 10 μM, one-way ANOVA with Dunnett's posttest vs nsSK and medium control; for activity on TcSKR1 in words: compared to parental peptide nsSK, Sf9 cell-based reporter; for relative activity (% nsSK) TcSKR1: peptide 10 μM, Sf9-TcSKR1 cells transiently transfected with pGL4.29[luc2P/CRE/Hygro], 5 h at 27 °C, Bright-Glo luminescence, activity related to nsSK, mean ± SEM, at least two biological replicates, SEM
Description: (§1) Sf9 cells (Spodoptera frugiperda) and Sf9-TcSKR1 and Sf9-TcSKR2 cells generated previously[21] were routinely cultured in SF-900™ II SFM medium (Life Technologies, Merelbeke, Belgium) at 27 °C in darkness. The medium for Sf9-TcSKR1 and Sf9-TcSKR2 was supplemented with 20 μg/ml of puromycin (Life Technologies, Merelbeke, Belgium) to maintain the stable expression of TcSKRs.
(§2) The reporter vector pGL4.29[luc2P/CRE/Hygro] (CRE; Promega, Leiden, the Netherlands) was applied here and it has a cAMP (cyclic adenosine 3′, 5′-cyclic monophosphate) response element upstream the reporter gene luciferase, through which the cAMP signaling regulates the transcription of luciferase proportionally. Thus, the readout of the luminescence corresponds to the extent to which the expressed TcSKR is activated in Sf9 cells. The SK-related peptides (Table 1) were tested at concentrations of 0.1, 1 and 10 μM.
(§3) Sf9, Sf9-TcSKR1 and Sf9-TcSKR2 cells were all transiently transfected with pGL4.29[luc2P/CRE/Hygro] using ESCORT™ IV transfection reagent (Sigma-Aldrich, Bornem, Belgium) following the manufacturer’s instruction. Medium was supplemented with 200 μg/ml hygromycin (Life Technologies, Merelbeke, Belgium) 24 h post-transfection. The transient cells (Sf9-CRE, Sf9-TcSKR1-CRE, Sf9-TcSKR2-CRE) were seeded at 20,000 cells per well in white 96-well plates (Greiner Bio-One, Frickenhausen, Germany). After 12 h, cells had attached to the well bottom and the medium was replaced by fresh medium containing peptide of designated concentrations. Each concentration was tested in three replicates and the entire assay was repeated at least twice. Two kinds of negative control were included. […] Second, Sf9-CRE cells were used as a negative control to eliminate the potential internal factors that were activated by peptide samples. Cells were incubated with a peptide for 5 h at 27 °C and then Bright-Glo™ luciferase assay (Promega, Leiden, the Netherlands) was carried out according to the manufacturer’s instruction. Light emission, resulting from the luciferase activity was measured for 10 seconds per well using an Infinite® 200 PRO microplate reader (Tecan, Mechelen, Belgium).
(§4) In the receptor activation bioassay, the activity of a peptide on TcSKR was represented by the increased luminescence units, calculated with the following formula: activitypeptide = (luminescencepeptide – luminescencemedium)/luminescencemedium × 100. The activity of SK-related peptide was compared to that of nsSK and medium control by one-way analysis of variance with the Dunnett’s posttest in GraphPad Prism version 5.00 (GraphPad Software, La Jolla, CA). The activity of a SK-related peptide was also related to the activity of nsSK as a percentage value, calculated with the formula: relative activity of peptide (% nsSK) = activitypeptide/activitynsSK × 100.

[2] = tested on: TcSKR2; test: Receptor activation bioassay, CRE-luciferase reporter in Sf9-TcSKR2 cells; type: cell-based, Tribolium castaneum; set-up: key to peptide marked active on TcSKR2: *: A peptide is active on the sulfakinin receptor (SKR); settings: for peptide marked active on TcSKR2: 10 μM, one-way ANOVA with Dunnett's posttest vs nsSK and medium control; for activity on TcSKR2 in words: compared to parental peptide nsSK, Sf9 cell-based reporter; for relative activity (% nsSK) TcSKR2: peptide 10 μM, Sf9-TcSKR2 cells transiently transfected with pGL4.29[luc2P/CRE/Hygro], 5 h at 27 °C, Bright-Glo luminescence, activity related to nsSK, mean ± SEM, at least two biological replicates, SEM
Description: as §1, §2, §3, §4

[3] = tested on: TcSKR2; settings: previous experiments; cited from earlier work
Text: As a satiety factor, insect SK signaling provides insights into the development of new pest control strategies. […] This lead to a hypothesis that sSK and nsSK interact with the two TcSKRs differently. Therefore, understanding the interaction of ligand and receptor will promote the ...

| Substance | peptide marked active on TcSKR1 [1] | activity on TcSKR1 in words [1] | relative activity (% nsSK) TcSKR1 [1] [% nsSK] | peptide marked active on TcSKR2 [2] | activity on TcSKR2 in words [2] | relative activity (% nsSK) TcSKR2 [2] [% nsSK] | potency of sSK relative to nsSK to activate TcSKR2 [3] |
| --- | --- | --- | --- | --- | --- | --- | --- |
| DDY(SO3H)GHMRF-NH2 [Peptide 1658, sulfated SK-related peptide DDY(SO3H)GHMRF-NH2] | * | retention of activity | 64.8 ± 8.4 | * | much more active than nsSK; also recorded: retention of activity | 516.8 ± 50.6 |  |
| DDYGHMRF-NH2 [Peptide 2009, truncated nsSK, DDYGHMRF-NH2] |  |  | 7.8 ± 11.8 |  |  | 1.2 ± 13.7 |  |
| DYGHMRF-NH2 [Peptide 2010, truncated nsSK, DYGHMRF-NH2] |  |  | 28.1 ± 15.6 |  |  | 8.6 ± 9.1 |  |
| EADY(SO3H)GHNleRF-NH2 [Peptide 1591-1, sulfated SK-related peptide EADY(SO3H)GHNleRF-NH2] | * | retention of activity | 82.6 ± 2.0 | * | much more active than nsSK; also recorded: retention of activity | 113.7 ± 60.5 |  |
| FDDAGHMRF-NH2 [Peptide 2008, alanine-substituted nsSK, …-NH2] |  | inactive | 5.3 ± 1.5 |  | inactive | 21.5 ± 10.7 |  |
| FDDY(SO3H)GHMRF-NH2 [sSK, sulfated sulfakinin peptide FDDY(SO3H)GHMRF-NH2] |  |  |  |  |  |  | 1,000–10,000 times |
| FDDYAHMRF-NH2 [Peptide 2007, alanine-substituted nsSK, …-NH2] |  | kept the activity on TcSKR1 to some extent | 55.0 ± 7.1 |  |  | 8.5 ± 5.3 |  |
| FDDYGAMRF-NH2 [Peptide 2006, alanine-substituted nsSK, …-NH2] |  | inactive | 0.5 ± 0.7 |  | inactive | 4.0 ± 9.9 |  |
| FDDYGHARF-NH2 [Peptide 2005, alanine-substituted nsSK, …-NH2] |  | inactive | −0.8 ± 4.4 |  | inactive | 11.9 ± 2.7 |  |
| FDDYGHMAF-NH2 [Peptide 2004, alanine-substituted nsSK, …-NH2] |  | inactive | 58.0 ± 22.0 |  | inactive | 18.7 ± 10.2 |  |
| FDDYGHMRA-NH2 [Peptide 2003, alanine-substituted nsSK, …-NH2] |  | inactive | −2.0 ± 3.4 |  | inactive | −3.5 ± 5.9 |  |
| FDDYGHMRF-NH2 [nsSK, nonsulfated sulfakinin peptide …-NH2, parental peptide of the series, reference compound] | * |  | 100.0 ± 0.0 | * |  | 100.0 ± 0.0 |  |
| GHMRF-NH2 [Peptide 2053, truncated nsSK, GHMRF-NH2] |  |  | 0.6 ± 0.1 |  |  | −4.8 ± 0.1 |  |
| HMRF-NH2 [Peptide 2052, truncated nsSK, HMRF-NH2] |  |  | 6.8 ± 0.2 |  |  | 1.8 ± 0.1 |  |
| SDDY(SO3H)GHMRF-NH2 [Peptide 1835, sulfated SK-related peptide SDDY(SO3H)GHMRF-NH2] | * | retention of activity | 76.5 ± 7.6 | * | much more active than nsSK; also recorded: retention of activity | 645.7 ± 126.6 |  |
| YGHMRF-NH2 [Peptide 2011, truncated nsSK, YGHMRF-NH2] |  |  | 2.8 ± 2.5 |  |  | 11.7 ± 13.5 |  |
